From article PMC9030932, “Development of Dibenzothiazepine Derivatives as Multifunctional Compounds for Neuropathic Pain” (Pharmaceuticals, 2022)
Read-outs that look alike come from different tables or passages of the source. Marks after values point to notes of the source that are not given here.

Legend:
Format in all cases: cell-based
[1] = target: human serotonin transporter (hSERT) (Homo sapiens, UniProt P31645); assay: Neurotransmitter transporter uptake assay, HEK-hSERT; conditions: for inhibition at 10 µM: read-out: % Inhibition at 10 μM hSERT
[2] = target: human norepinephrine transporter (hNET) (Homo sapiens, UniProt P23975); assay: Neurotransmitter transporter uptake assay, HEK-hNET; conditions: read-out: % Inhibition at 10 μM hNET
[3] = target: human dopamine transporter (hDAT) (Homo sapiens, UniProt Q01959); assay: Neurotransmitter transporter uptake assay, HEK-hDAT; conditions: for inhibition at 10 µM: read-out: % Inhibition at 10 μM hDAT
[4] = target: T1, human μ-opioid receptor (OPRM1) (Homo sapiens, UniProt P35372); assay: Intracellular calcium mobilization (FLIPR Tetra), HEK-hMOR agonism; conditions: for % Stimulation at 10 μM, OPRM1 Agonism against DAMGO (3.9 μM): HEK-hMOR calcium mobilization, normalized to Emax of DAMGO at 3.9 μM
T1 construct: host or cells: HEK293 (constitutive expression)

hOPRM1 receptor = target: T2, hOPRM1 receptor (Homo sapiens, UniProt P35372); assay: PathHunter CHO-K1 OPRM1 β-arrestin recruitment assay
T2 construct: host or cells: CHO-K1

[5] = target: T3, human κ-opioid receptor (OPRK1) (Homo sapiens, UniProt P41145); assay: Intracellular calcium mobilization (FLIPR Tetra), HEK-hKOR agonism; conditions: read-out: % Stimulation at 10 μM, OPRK1 Agonism against DynorphinA (370 nM)
T3 construct: host or cells: HEK293 (constitutive expression)
Description: Intracellular calcium mobilization was measured by using FLIPR Tetra System (Molecular Devices, Sunnyvale, CA, USA) in accordance with manufacturer’s instruction. […] Subsequently, the plate was transferred to the FLIPR tetra system for treating 50 μL of the 5× compounds diluted in loading buffer and reading intracellular calcium mobilization. The final concentration of DMSO was 0.1%. […] A dose response curve was generated with the changes in Relative Fluorescence Units (∆RFU) versus Log10 dose.
Experimental details for Biology
Cell culture. HEK293 cells stably expressing human DA transporter (HEK-hDAT), human NE transporter (HEK-hNET) and human serotonin transporter (HEK-hSERT) were kindly provided by Professor Bryan Roth (University of North Carolina at Chapel Hill). And HEK293 cells constitutively expressing human κ- or μ- opioid receptor (HEK-hKOR_NM000912 or HEK-hMOR_NM000914) were constructed by Professor Ki Duk Park (in Korea Institute of Science […]
Europins DiscoveRx (Fremont, CA, USA). Cells were mainta ined in Dulbecco's modified Eagle's medium (HyClone, Logan, UT, USA) supplemented with 10%(v/v) fetal bovine serum (FBS, HyClone, Logan, UT, USA), penicillin (100 U/mL), and streptomycin (100 μg/mL) in the […]
for HEK-hDAT, HEK-hNET, HEK-hSERT, HEK-hKOR and HEK-hMOR respectively) in a humidified 5% CO2 incubator at 37 °C. In case of both HEK-hKOR and HEK-hMOR, cells were additionally maintained in 0.2 mg/mL hygromycin B, 1 μg/mL puromycin B, 1× non-essential amino acids. The cells were subcultured every 3-4 days. […]

[6] = 10 μM, HEK-hSERT, mean ± SEM, n = 3–6
[7] = 10 μM, HEK-hNET, mean ± SEM, n = 3–6

Chain of human dopamine transporter (hDAT) (Q01959 whole entry): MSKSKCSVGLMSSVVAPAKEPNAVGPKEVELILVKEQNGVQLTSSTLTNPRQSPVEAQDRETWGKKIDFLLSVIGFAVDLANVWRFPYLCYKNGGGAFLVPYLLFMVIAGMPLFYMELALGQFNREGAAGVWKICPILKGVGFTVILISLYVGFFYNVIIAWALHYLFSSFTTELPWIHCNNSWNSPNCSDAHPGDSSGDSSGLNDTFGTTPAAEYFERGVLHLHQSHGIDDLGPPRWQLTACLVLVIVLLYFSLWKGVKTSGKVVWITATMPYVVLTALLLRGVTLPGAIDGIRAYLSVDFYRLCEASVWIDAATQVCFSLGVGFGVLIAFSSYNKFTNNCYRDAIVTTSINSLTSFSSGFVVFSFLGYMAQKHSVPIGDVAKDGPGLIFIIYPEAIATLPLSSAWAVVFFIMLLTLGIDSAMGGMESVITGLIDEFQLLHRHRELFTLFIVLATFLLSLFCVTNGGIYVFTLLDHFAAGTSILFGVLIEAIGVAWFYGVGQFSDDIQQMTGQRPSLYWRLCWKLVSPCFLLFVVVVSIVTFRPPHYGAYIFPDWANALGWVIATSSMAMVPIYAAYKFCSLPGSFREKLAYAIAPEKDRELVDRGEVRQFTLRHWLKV
T2 sequence (P35372 whole entry): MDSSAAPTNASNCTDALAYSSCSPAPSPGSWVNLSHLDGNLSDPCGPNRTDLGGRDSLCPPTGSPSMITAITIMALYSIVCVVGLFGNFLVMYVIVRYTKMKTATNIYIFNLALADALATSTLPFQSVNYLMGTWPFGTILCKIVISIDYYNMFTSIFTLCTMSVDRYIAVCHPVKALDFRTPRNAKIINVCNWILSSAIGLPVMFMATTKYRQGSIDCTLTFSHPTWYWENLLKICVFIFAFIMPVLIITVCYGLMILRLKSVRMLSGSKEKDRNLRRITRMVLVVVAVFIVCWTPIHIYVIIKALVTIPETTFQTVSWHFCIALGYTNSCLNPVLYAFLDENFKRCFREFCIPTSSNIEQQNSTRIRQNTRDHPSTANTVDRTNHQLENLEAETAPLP
T1 sequence (P35372 whole entry): as above
Chain of human norepinephrine transporter (hNET) (P23975 whole entry): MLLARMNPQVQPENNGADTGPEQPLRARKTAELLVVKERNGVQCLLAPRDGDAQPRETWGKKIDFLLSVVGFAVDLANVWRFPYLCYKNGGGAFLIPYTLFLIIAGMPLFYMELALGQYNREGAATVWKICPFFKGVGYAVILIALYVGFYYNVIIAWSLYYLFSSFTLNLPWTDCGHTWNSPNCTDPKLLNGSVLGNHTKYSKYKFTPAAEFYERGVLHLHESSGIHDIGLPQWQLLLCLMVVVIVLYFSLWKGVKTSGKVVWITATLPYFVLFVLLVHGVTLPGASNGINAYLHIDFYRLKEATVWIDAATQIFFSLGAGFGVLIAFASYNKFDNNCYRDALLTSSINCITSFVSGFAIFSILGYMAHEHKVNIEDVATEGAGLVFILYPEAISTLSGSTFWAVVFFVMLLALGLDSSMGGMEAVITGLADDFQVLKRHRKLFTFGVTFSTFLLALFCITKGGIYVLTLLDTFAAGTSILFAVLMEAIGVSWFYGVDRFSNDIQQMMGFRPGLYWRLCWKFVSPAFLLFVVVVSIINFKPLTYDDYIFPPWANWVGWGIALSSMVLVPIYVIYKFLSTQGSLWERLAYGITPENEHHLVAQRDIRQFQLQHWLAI
T3 sequence (P41145 whole entry): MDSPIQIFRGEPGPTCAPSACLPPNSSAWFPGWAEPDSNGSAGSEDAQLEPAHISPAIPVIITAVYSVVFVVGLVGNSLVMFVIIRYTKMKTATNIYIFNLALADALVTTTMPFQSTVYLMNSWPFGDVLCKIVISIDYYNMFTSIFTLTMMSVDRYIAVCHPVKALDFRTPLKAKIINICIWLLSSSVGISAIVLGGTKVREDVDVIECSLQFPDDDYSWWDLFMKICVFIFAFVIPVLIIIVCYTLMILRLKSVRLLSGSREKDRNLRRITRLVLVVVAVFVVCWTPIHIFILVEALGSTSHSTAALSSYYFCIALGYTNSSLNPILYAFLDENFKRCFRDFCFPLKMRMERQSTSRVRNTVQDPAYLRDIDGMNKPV
Chain of human serotonin transporter (hSERT) (P31645 whole entry): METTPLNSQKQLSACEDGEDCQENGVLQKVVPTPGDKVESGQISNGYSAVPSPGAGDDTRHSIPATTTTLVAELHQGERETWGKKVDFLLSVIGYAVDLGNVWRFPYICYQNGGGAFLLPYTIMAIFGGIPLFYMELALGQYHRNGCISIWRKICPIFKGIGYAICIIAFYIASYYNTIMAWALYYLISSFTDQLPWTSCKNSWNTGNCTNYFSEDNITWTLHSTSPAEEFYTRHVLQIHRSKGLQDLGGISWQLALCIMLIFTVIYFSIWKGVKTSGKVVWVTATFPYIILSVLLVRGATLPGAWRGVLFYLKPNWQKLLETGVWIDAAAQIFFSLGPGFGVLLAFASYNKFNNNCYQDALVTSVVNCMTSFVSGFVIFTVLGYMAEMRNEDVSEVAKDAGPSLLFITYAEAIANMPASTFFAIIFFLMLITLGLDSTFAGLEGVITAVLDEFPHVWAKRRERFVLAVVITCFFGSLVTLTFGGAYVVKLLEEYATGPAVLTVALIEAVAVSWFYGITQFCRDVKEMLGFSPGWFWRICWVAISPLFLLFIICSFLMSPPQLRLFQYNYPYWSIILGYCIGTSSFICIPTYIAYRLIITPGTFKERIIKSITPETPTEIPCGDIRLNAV

SMILES | inhibition at 10 µM [1, 6] [%] | inhibition at 10 µM [2, 7] [%] | inhibition at 10 µM [3] [%] | % Stimulation at 10 μM, OPRM1 Agonism against DAMGO (3.9 μM) [4] [% ^b] | EC50 (hOPRM1 receptor) [µM] | activation at 10 µM [5] [%] | other results
CN1c2ccccc2C(NCCc2c[nH]c3ccc(O)cc23)c2ccc(Cl)cc2S1(=O)=O (centres unmarked) [Compound 7, 3-chloro-11-((2-(5-hydroxy-1H-indol-3-yl)ethyl)amino)-6-methyl-6,11-dihydrodibenzo[c,f][1,2]thiazepine 5,5-dioxide] | 37.5 ± 2.5 | 30.8 ± 2.8 | 36.2 ± 2.7 | – | – | – | –
CN1c2ccccc2C(NCC(=O)NCCc2c[nH]c3ccc(O)cc23)c2ccc(Cl)cc2S1(=O)=O (centres unmarked) [Compound 11a, 2-((3-chloro-6-methyl-5,5-dioxido-6,11-dihydrodibenzo[c,f][1,2]thiazepin-11-yl)amino)-N-(2-(5-hydroxy-1H-indol-3-yl)ethyl)acetamide] | 50.9 ± 4.1 | 13.2 ± 2.3 | 33.2 ± 6.5 | – | – | – | –
CN1c2ccccc2C(NCCC(=O)NCCc2c[nH]c3ccc(O)cc23)c2ccc(Cl)cc2S1(=O)=O (centres unmarked) [Compound 11b, 3-((3-chloro-6-methyl-5,5-dioxido-6,11-dihydrodibenzo[c,f][1,2]thiazepin-11-yl)amino)-N-(2-(5-hydroxy-1H-indol-3-yl)ethyl)propanamide] | – | 54.8 ± 3.7 | 44.9 ± 4.2 | – | – | – | IC50 [1]: 4.08 ± 0.032 µM
CN1c2ccccc2C(NCCCC(=O)NCCc2c[nH]c3ccc(O)cc23)c2ccc(Cl)cc2S1(=O)=O (centres unmarked) [Compound 11c, 4-((3-chloro-6-methyl-5,5-dioxido-6,11-dihydrodibenzo[c,f][1,2]thiazepin-11-yl)amino)-N-(2-(5-hydroxy-1H-indol-3-yl)ethyl)butanamide] | 35.5 ± 3.7 | 24.3 ± 7.4 | 41.3 ± 5.7 | – | – | – | –
CN1c2ccccc2C(NCCCCC(=O)NCCc2c[nH]c3ccc(O)cc23)c2ccc(Cl)cc2S1(=O)=O (centres unmarked) [Compound 11d, 5-((3-chloro-6-methyl-5,5-dioxido-6,11-dihydrodibenzo[c,f][1,2]thiazepin-11-yl)amino)-N-(2-(5-hydroxy-1H-indol-3-yl)ethyl)pentanamide] | – | 21.1 ± 4.7 | 41.3 ± 7.6 | – | – | – | IC50 ([1]; HEK-hSERT, neurotransmitter uptake, mean ± SEM, n = 3–6, read-out: IC50 hSERT): 10.1 ± 0.5 µM
CN1c2ccccc2C(NCCCCCC(=O)NCCc2c[nH]c3ccc(O)cc23)c2ccc(Cl)cc2S1(=O)=O (centres unmarked) [Compound 11e, 6-((3-chloro-6-methyl-5,5-dioxido-6,11-dihydrodibenzo[c,f][1,2]thiazepin-11-yl)amino)-N-(2-(5-hydroxy-1H-indol-3-yl)ethyl)hexanamide] | – | 30.1 ± 5 | 40.2 ± 0.12 | – | – | – | IC50 [1]: 6.74 ± 0.38 µM
COc1ccc2[nH]cc(CCNC(=O)CCCCCCNC3c4ccccc4N(C)S(=O)(=O)c4cc(Cl)ccc43)c2c1 (centres unmarked) [Compound 13, 7-((3-chloro-6-methyl-5,5-dioxido-6,11-dihydrodibenzo[c,f][1,2]thiazepin-11-yl)amino)-N-(2-(5-methoxy-1H-indol-3-yl)ethyl)heptanamide] | 39.7 ± 6.3 | 23.7 ± 7.5 | 25.6 ± 9.7 | – | – | – | –
CN1c2ccccc2C(NCCCCCCC(=O)NCCc2c[nH]c3ccccc23)c2ccc(Cl)cc2S1(=O)=O (centres unmarked) [Compound 14, N-(2-(1H-indol-3-yl)ethyl)-7-((3-chloro-6-methyl-5,5-dioxido-6,11-dihydrodibenzo[c,f][1,2]thiazepin-11-yl)amino)heptanamide] | 50.3 ± 3.4 | 65.2 ± 3.4 | – | 62.3 ± 2.9 | 0.113 ± 0.003 | < 10 | IC50 [3]: 3.81 ± 1.4 µM
CN1c2ccccc2C(NCCCCCCCC=CCc2c[nH]c3ccccc23)c2ccc(Cl)cc2S1(=O)=O (centres unmarked) [Compound 21] | 26.3 ± 6.4 | 5.64 ± 4.5 | 8.92 ± 6.1 | <10 | > 10 | < 10 | –
CN1c2ccccc2C(NCCCCCCCCCCc2c[nH]c3ccccc23)c2ccc(Cl)cc2S1(=O)=O (centres unmarked) [Compound 22] | 17.9 ± 7.5 | 5.56 ± 0.07 | 1.95 ± 0.06 | 11.8 ± 1.9 | > 10 | < 10 | –
CC(C)C[C@H](CNC(=O)CCCCCCNC1c2ccccc2N(C)S(=O)(=O)c2cc(Cl)ccc21)CC(=O)O (stereo partly drawn) [Compound 25, (3S)-3-((7-((3-chloro-6-methyl-5,5-dioxido-6,11-dihydrodibenzo[c,f][1,2]thiazepin-11-yl)amino)heptanamido)methyl)-5-methylhexanoic acid] | 11.3 ± 2.5 | 21 ± 2.6 | 17.6 ± 8.9 | – | > 10 | < 10 | EC50 [4]: 2.41 ± 0.144 µM
CN(CCCCCCCNC1c2ccccc2N(C)S(=O)(=O)c2cc(Cl)ccc21)CCC(Oc1ccc(C(F)(F)F)cc1)c1ccccc1 (centres unmarked) [Compound 26, 3-chloro-6-methyl-11-((7-(methyl(3-phenyl-3-(4-(trifluoromethyl)phenoxy)propyl)amino)heptyl)amino)-6,11-dihydrodibenzo[c,f][1,2]thiazepine 5,5-dioxide] | – | 7.07 ± 4.1 | 23.6 ± 12 | <10 | > 10 | < 10 | IC50 [1]: 2.18 ± 0.37 µM
CN1c2ccccc2C(NCCCCCCCNCCc2c[nH]c3ccc(C#N)cc23)c2ccc(Cl)cc2S1(=O)=O (centres unmarked) [Compound 27, 3-(2-((7-((3-chloro-6-methyl-5,5-dioxido-6,11-dihydrodibenzo[c,f][1,2]thiazepin-11-yl)amino)heptyl)amino)ethyl)-1H-indole-5-carbonitrile] | – | 63.6 ± 4.4 | – | 65.9 ± 2.8 | 3.28 ± 0.642 | < 10 | IC50 [1]: 0.462 ± 0.034 µM; IC50 [3]: 4.98 ± 2.1 µM
Fc1ccc(C(OCCN2CCN(CCCc3ccccc3)CC2)c2ccc(F)cc2)cc1 [GBR12909, reference compound] | – | – | 85.9 ± 0.27 | – | – | – | inhibition at 10 µM [1]: 70.6 ± 1.3%; inhibition at 10 µM [2]: 79.1 ± 0.71%
CNCCC(Oc1ccccc1OC)c1ccccc1 (centres unmarked) [Nisoxetine, reference compound] | – | – | 79.7 ± 1.4 | – | – | – | inhibition at 10 µM [1]: 79.8 ± 0.32%
